From BindingDB's records for doi:10.7270/Q2319T8T (The Scripps Research Institute Molecular Screening Center, 2007)
pIC50: −log10 of the molar value. Structures can show the parent of a compound that is named as a salt.

Molecular target: Steroidogenic factor 1 (Homo sapiens, UniProt Q13285)
Test: blockers of SF-1 LBD reporter transcription – cell-based, CHO-K1, Gal4-SF-1 LBD, luciferase luminescence, dose response (AID 600)
[1] = inactive by the depositor's call

Sequence of Steroidogenic factor 1 (Q13285 whole entry, the tested form may be a part): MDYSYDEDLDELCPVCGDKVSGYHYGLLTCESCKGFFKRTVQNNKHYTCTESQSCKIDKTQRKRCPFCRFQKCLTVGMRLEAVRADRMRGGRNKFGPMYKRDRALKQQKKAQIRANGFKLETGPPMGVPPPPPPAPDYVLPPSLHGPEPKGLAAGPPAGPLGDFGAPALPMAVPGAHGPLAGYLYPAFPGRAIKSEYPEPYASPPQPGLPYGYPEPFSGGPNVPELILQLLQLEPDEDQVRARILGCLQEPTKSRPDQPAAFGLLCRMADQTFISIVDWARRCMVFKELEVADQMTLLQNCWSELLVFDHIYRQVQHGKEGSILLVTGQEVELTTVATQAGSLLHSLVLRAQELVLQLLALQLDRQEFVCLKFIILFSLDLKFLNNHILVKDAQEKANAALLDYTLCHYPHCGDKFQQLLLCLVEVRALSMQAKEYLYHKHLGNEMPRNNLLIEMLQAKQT

Row | pIC50 | pIC50 [1] | SMILES
1 | 5.87 | – | c1ccc(-c2noc(-c3ccc4c(c3)OCO4)n2)nc1 [2-[5-(1,3-benzodioxol-5-yl)-1,2,4-oxadiazol-3-yl]pyridine]
2 | 6.15 | – | c1ccc(-c2noc(-c3ccc4ccccc4c3)n2)nc1 [2-[5-(2-naphthyl)-1,2,4-oxadiazol-3-yl]pyridine]
3 | 5.54 | – | COC(=O)c1sc(NC(=O)c2ccc(OC)cc2OC)nc1C [2-[(2,4-dimethoxybenzoyl)amino]-4-methyl-thiazole-5-carboxylic acid methyl ester]
4 | < 8.30 | – | Cc1cc(C=c2sc3nc4ccccc4n3c2=O)c(C)n1-c1ccccn1 [2-[(2,5-dimethyl-1-pyridin-2-yl-pyrrol-3-yl)methylidene]-[1,3]thiazolo[3,2-a]benzimidazol-1-one]
5 | < 5.44 | – | Cc1cccc2cc(C#N)c(SCC(=O)N3CC(=O)Nc4ccccc43)nc12 [2-[[2-keto-2-(3-keto-2,4-dihydroquinoxalin-1-yl)ethyl]thio]-8-methyl-quinoline-3-carbonitrile]
6 | < 5.44 | – | CCN(CC)c1ccc2c(c1)OC(=N)C(C#N)C2c1cccnc1 (configuration not stated) [2-amino-7-(diethylamino)-4-(3-pyridinyl)-4H-1-benzopyran-3-carbonitrile]
7 | < 5.44 | – | COc1cc(C2c3ccc(N(C)C)cc3OC(=N)C2C#N)cc2c1OCO2 (configuration not stated) [2-amino-7-(dimethylamino)-4-(7-methoxy-1,3-benzodioxol-5-yl)-4H-1-benzopyran-3-carbonitrile]
8 | 5.13 | – | CCCc1ccc(-c2ccc(F)c(N)c2)nc1 [2-fluoranyl-5-(5-propylpyridin-2-yl)aniline]
9 | 5.72 | – | O=C(c1ccc2c3c(cccc13)C(=O)N(O)C2=O)N1CCCCC1 [2-hydroxy-6-(piperidine-1-carbonyl)benzo[de]isoquinoline-1,3-dione]
10 | < 5.91 | – | COc1cc(C2C3=C(N=C(C)C2C#N)c2ccccc2C3=O)cc(OC)c1OC (configuration not stated) [2-methyl-5-oxidanylidene-4-(3,4,5-trimethoxyphenyl)-1,4-dihydroindeno[1,2-b]pyridine-3-carbonitrile]
11 | – | 5.00 | N#CC(C#N)=c1ccc2c(c1)NC1(CCCCC1)N=2 [2-spiro[3H-benzimidazole-2,1'-cyclohexane]-5-ylidenepropanedinitrile]
12 | – | 4.52 | Cc1nn(-c2ccccc2)c(C)c1C(=O)OCC(=O)c1c(N)n(CC(C)C)c(=O)n(C)c1=O [3,5-dimethyl-1-phenyl-4-pyrazolecarboxylic acid [2-[4-amino-1-methyl-3-(2-methylpropyl)-2,6-dioxo-5-pyrimidinyl]-2-oxoethyl] ester]
13 | < 4.96 | – | c1ccc(-c2ccc(-c3ccccn3)nn2)nc1 [3,6-bis(2-pyridinyl)pyridazine]
14 | 5.16 | – | Cc1ccc(-c2nc3nc4ccccc4nc3n2Cc2ccco2)cc1 [3-(2-furanylmethyl)-2-(4-methylphenyl)imidazo[4,5-b]quinoxaline]
15 | 5.41 | – | CCOc1ccc(-c2noc(CCC(=O)O)n2)cc1 [3-(3-p-phenetyl-1,2,4-oxadiazol-5-yl)propionic acid]
16 | – | 4.89 | Cc1ccc(-c2cc3c(nn2)-c2ccccc2C3=O)cc1 [3-(4-methylphenyl)-5H-indeno[1,2-c]pyridazin-5-one]
17 | < 5.44 | – | CN(C)CC(C(=O)c1ccccc1)c1ccccc1 (configuration not stated) [3-(dimethylamino)-1,2-diphenyl-1-propanone;hydrochloride]
18 | – | 4.85 | COc1ccc(NC(=O)N2CCCC(c3nc(-c4ccc(C(C)C)cc4)no3)C2)cc1 (configuration not stated) [3-[3-(4-Isopropyl-phenyl)-[1,2,4]oxadiazol-5-yl]-piperidine-1-carboxylic acid (4-methoxy-phenyl)-amide]
19 | 5.15 | – | Cc1ccccc1NC(=O)N1CCCC(c2nc(-c3ccc(C(C)C)cc3)no2)C1 (configuration not stated) [3-[3-(4-Isopropyl-phenyl)-[1,2,4]oxadiazol-5-yl]-piperidine-1-carboxylic acid o-tolylamide]
20 | 6.00 | – | CN(C)C(=O)CCc1nc(-c2ccc(C(C)(C)C)cc2)no1 [3-[3-(4-tert-butylphenyl)-1,2,4-oxadiazol-5-yl]-N,N-dimethyl-propanamide]
21 | 7.24 | – | CNC(=O)CCc1nc(-c2ccc(C(C)(C)C)cc2)no1 [3-[3-(4-tert-butylphenyl)-1,2,4-oxadiazol-5-yl]-N-methyl-propanamide]
22 | 4.66 | – | COc1ccc(/N=c2\scc(-c3ccc(S(=O)(=O)N4CCOCC4)cc3)n2CCCO)cc1 [3-[(2Z)-2-[(4-methoxyphenyl)imino]-4-[4-(morpholin-4-ylsulfonyl)phenyl]-1,3-thiazol-3(2H)-yl]propan-1-ol]
23 | 5.50 | – | Cc1cc(C(=O)Nc2cccc(C(=O)O)c2)oc1C [3-[(4,5-dimethyl-2-furoyl)amino]benzoic acid]
24 | 5.97 | – | O=C(c1ccc(Cl)cc1)N1CCCCC(Sc2nnc(-c3ccc4c(c3)OCO4)o2)C1=O (configuration not stated) [3-[[5-(1,3-benzodioxol-5-yl)-1,3,4-oxadiazol-2-yl]sulfanyl]-1-(4-chlorobenzoyl)azepan-2-one]
25 | 5.50 | – | Clc1ccc(-n2ncc3c(N4CCCCCC4)ncnc32)cc1 [4-(1-azepanyl)-1-(4-chlorophenyl)pyrazolo[3,4-d]pyrimidine]
26 | 5.00 | – | O=C(Nc1nc(-c2ccccn2)cs1)c1ccc(S(=O)(=O)N2CCCCC2)cc1 [4-(1-piperidinylsulfonyl)-N-[4-(2-pyridinyl)-2-thiazolyl]benzamide]

Continued, compound first:

Row | SMILES | pIC50 | pIC50 [1]
27 | CCCCOc1ccccc1NC(=O)Cn1c(-c2nonc2N)nc2ccccc21 [2-[2-(4-amino-1,2,5-oxadiazol-3-yl)-1-benzimidazolyl]-N-(2-butoxyphenyl)acetamide] | < 5.44 | –
28 | CN1CCN(C(=O)COc2ccc(-c3nc4ccccc4s3)cc2)CC1 [2-[4-(1,3-benzothiazol-2-yl)phenoxy]-1-(4-methyl-1-piperazinyl)ethanone] | 5.14 | –
29 | Cc1cc(N2CCN(c3nc4ccccc4s3)CC2)n2ncnc2n1 [2-[4-(5-methyl-[1,2,4]triazolo[1,5-a]pyrimidin-7-yl)-1-piperazinyl]-1,3-benzothiazole] | – | 4.64
30 | Clc1cccc(-c2nc(-c3ccccn3)no2)c1 [2-[5-(3-Chloro-phenyl)-[1,2,4]oxadiazol-3-yl]-pyridine] | < 5.44 | –
31 | O=S1(=O)C=C(Sc2nc3ccccc3s2)c2ccccc21 [2-[(1,1-dioxido-1-benzothien-3-yl)thio]-1,3-benzothiazole] | 6.15 | –
32 | O=C(CSc1nnnn1C1CC2CCC1C2)Nc1ccnc2ccccc12 (configuration not stated) [2-[(1-bicyclo[2.2.1]hept-2-yl-1H-tetrazol-5-yl)thio]-N-4-quinolinylacetamide] | 6.01 | –
33 | Cc1cccc(N2CCN(C(=O)CSCc3c(C)noc3C)CC2)c1C [2-[(3,5-dimethyl-1,2-oxazol-4-yl)methylsulfanyl]-1-[4-(2,3-dimethylphenyl)piperazin-1-yl]ethanone] | 6.06 | –
34 | CCc1ccc(-c2nc(CSCC(=O)N3CCN(c4ncccn4)CC3)c(C)o2)cc1 [2-[[2-(4-ethylphenyl)-5-methyl-1,3-oxazol-4-yl]methylsulfanyl]-1-(4-pyrimidin-2-ylpiperazin-1-yl)ethanone] | – | 4.43
35 | CCOC(=O)CSc1nc2cc(C(=O)NCc3ccco3)ccc2c(=O)n1-c1ccc(F)cc1 [2-[[3-(4-fluorophenyl)-7-(2-furfurylcarbamoyl)-4-keto-quinazolin-2-yl]thio]acetic acid ethyl ester] | < 4.96 | –
36 | COc1cccc(NC(=O)CSc2nnc(-c3cc(C)n(-c4ccccc4)c3C)o2)c1 [2-[[5-(2,5-dimethyl-1-phenyl-3-pyrrolyl)-1,3,4-oxadiazol-2-yl]thio]-N-(3-methoxyphenyl)acetamide] | 5.47 | –
37 | CCOC(=O)c1c(N)sc(C(=O)Nc2ccc3c(c2)OCO3)c1C [2-amino-5-(1,3-benzodioxol-5-ylcarbamoyl)-4-methyl-thiophene-3-carboxylic acid ethyl ester] | < 5.44 | –
38 | CN(C)c1ccc2c(c1)OC(=N)C(C#N)C2c1cccc(F)c1 (configuration not stated) [2-amino-7-(dimethylamino)-4-(3-fluorophenyl)-4H-1-benzopyran-3-carbonitrile] | 4.96 | –
39 | CCc1nn2cc(-c3ccccc3)nc2s1 [2-ethyl-6-phenyl-imidazo[2,1-b][1,3,4]thiadiazole] | 5.36 | –
40 | c1ccc(-c2nc(NCc3ccco3)c3ccccc3n2)nc1 [2-furfuryl-[2-(2-pyridyl)quinazolin-4-yl]amine] | 5.17 | –
41 | c1ccc(-c2cn3c4c(sc3n2)CCCC4)cc1 [2-phenyl-5,6,7,8-tetrahydroimidazo[2,1-b][1,3]benzothiazole] | 5.34 | –
42 | c1csc(CNc2ncnc3sccc23)c1 [2-thenyl(thieno[2,3-d]pyrimidin-4-yl)amine] | 5.46 | –
43 | COc1cc(C(=O)Oc2c(CN3CCOCC3)cc(Cl)c3cccnc23)cc(OC)c1OC [3,4,5-trimethoxybenzoic acid [5-chloro-7-(4-morpholinylmethyl)-8-quinolinyl] ester] | – | 4.91
44 | COc1cc(OC)cc(-c2cc3nc(C)c(CCC(=O)O)c(C)n3n2)c1 [3-[2-(3,5-dimethoxyphenyl)-5,7-dimethyl-6-pyrazolo[1,5-a]pyrimidinyl]propanoic acid] | 6.20 | –
45 | CCNC(=O)CCc1nc(-c2ccc(C(C)(C)C)cc2)no1 [3-[3-(4-tert-butylphenyl)-1,2,4-oxadiazol-5-yl]-N-ethyl-propanamide] | 7.40 | –
46 | CC(C)(C)c1ccc(-c2noc(CCC(N)=O)n2)cc1 [3-[3-(4-tert-butylphenyl)-1,2,4-oxadiazol-5-yl]propanamide] | 7.16 | –
47 | O=C(O)c1cccc(COc2ccccc2Cl)c1 [3-[(2-chloranylphenoxy)methyl]benzoic acid] | 6.16 | –
48 | O=C(O)c1cccc(COc2ccc(CO)cc2Cl)c1 [3-[(2-chloro-4-methylol-phenoxy)methyl]benzoic acid] | 6.26 | –
49 | CCOc1ccc(OCc2cccc(C(=O)O)c2)cc1 [3-[(4-ethoxyphenoxy)methyl]benzoic acid] | 6.29 | –
50 | COc1ccc(OCc2cccc(C(=O)O)c2)cc1 [3-[(4-methoxyphenoxy)methyl]benzoic acid] | 6.38 | –
51 | Cc1ccsc1C(=O)OCC(=O)c1cc(C)n(CC2CCCO2)c1C (configuration not stated) [3-methyl-2-thiophenecarboxylic acid [2-[2,5-dimethyl-1-(2-oxolanylmethyl)-3-pyrrolyl]-2-oxoethyl] ester] | < 7.34 | –
52 | Cc1ccnc(NC(=O)CCCOc2cc(=O)n(C)c3ccccc23)c1 [4-(1-methyl-2-oxidanylidene-quinolin-4-yl)oxy-N-(4-methylpyridin-2-yl)butanamide] | 5.21 | –
